Reference: patent US20160332971A1, “ARYLQUINOLINE, ARYLQUINOLONE AND ARYLTHIOQUINOLONE DERIVATIVES AND USE THEREOF TO TREAT CANCER” (UNIVERSITY OF KENTUCKY RESEARCH FOUNDATION, priority 2015, published 2016)

What was measured:
[1] = system: Par-4 secretion from mouse fibroblasts; assay: Par-4 secretion into conditioned medium, quantitative Western blot normalised to CollA1; format: cell-based; settings: for Relative Levels of Par-4 Secretion by Arylquins Administered at 500 nM: 24 h, mouse fibroblasts, CM; for Par-4 secretory activity (in words): SAR discussion; for Par-4 secretory activity (in words) / Ratio of Par-4 Secretion by Arylquin 1 Relative to Vehicle: 500 nM
Method: Calibration curve developed using fixed amounts (0.05-5 ng) of recombinant TRX-Par-4. […] Therefore the concentration was 0.82 ng/40 μL or 540 pM, In the same fashion, calculation for Par-4 concentration using vehicle (v) was 280 pM.
Biological activity of 3-Arylquinolines. […] After 24 h exposure, the CM and lysates were subjected to quantitative Western blot analysis for Par-4 and collagen (CollA1).
Co-immunoprecipitation and Western blot analysis. Protein extracted from cell lysates was filtered, pre-cleared with 25 μL (bed volume) of protein G-Sepharose beads and immunoprecipitated with 1 μg of respective antibodies. The eluted proteins were resolved by SDS-PAGE, and subjected to Western blot analysis as described previously. Bensch, et al. Nature 1968, 218(5147):1176-1177.
Statistical analyses. All experiments were performed in triplicate to verify the reproducibility of the findings. […] Statistical analyses were carried out with Statistical Analysis System software (SAS Institute, Cary, N.C.) and P values were calculated using the Student t test.

hERG potassium channel = hERG potassium channel (Homo sapiens, UniProt Q12809)
Description: hERG Binding studies, An HEK-293 cell line stably expressing the hERG potassium channel (accession number U04270) referred to as hERG-HEK cells were received at passage 11 (P11) from Millipore (CYL3006, lot 2, Billerica, Mass.). [^3H]-Dofetilide (specific activity of 80 Ci/mmol; labeled on the N-methyl group) was obtained from American Radiolabeled Chemicals (St. Louis, Mo.). Other chemicals and solvents were obtained from Sigma-Aldrich (Milwaukee, Wis.). Polyethylenimine (PEI) was obtained from Fluka/Sigma-Aldrich (St. Louis, Mo.), and Minimium Essential Medium (MEM) with GlutaMAX™ and phenol red, MEM non-essential amino acids solution (NEAA, 100×), G418 disulfate salt solution, fetal bovine serum (FBS), 0.05% Trypsin-EDTA 1× with phenol red, and Hank's balanced salt solution (HBSS) were obtained from Life Technologies (Carlsbad, Calif.).
hERG-HEK Cell culture. hERG-FIEK Cells were cultured according to the protocol provided by Millipore. Cells were maintained in MEM (with glutamax and phenol red) supplemented with 10% […], 1% NEAA and […], and incubated at 37 ° C. in a humidified atmosphere with 5% CO2. Frozen aliquots of cells were transferred into T-75 cm^2 flasks and allowed to adhere for 4-8 h. The medium was replaced every 2 days. Passages were carried out at least 3 times after thawing at 6 day intervals. Cells were dissociated with trypsin/EDTA and seeded into new 150×25 mm dishes at 2-3×10^6 cells per dish and placed at 30° C., 5% CO2, for 40-48 h prior to membrane preparation. Membrane preparation occurred 6 days after the last passage (passage 20).
Membrane preparation. Cell membrane preparation was based on previous methods. See Herrmann, et al. J Mol Biol 1996, 264:933-953; Lavie, et al. J Org Chem 1965, 30(6):1774-1778; Chen, et al. A Practical Guide to Assay Development and High-throughput Screening in Drug Discovery, CRC Press Taylor and Francis Group, Boca Raton, Fla., 2010; Redfern, et al. Cardiovasc Res 2003, 58, 32-45. Cells were rinsed twice with HBSS at 37° C. and collected by scraping the dishes in 20 mL of ice-cold 0.32 M sucrose and homogenized on ice with a Teflon pestle using a Maximal Digital homogenizer (Fisher Scientific, Pittsburgh, Pa.) at 280 rpm for 30 sec. Homogenates were centrifuged at 300 g and 800 g for 4 min each at 4° C. Pellets were resuspended in 9 mL of ice-cold Milli-Q water and osmolarity restored by addition of 1 mL of 500 mM Tris buffer (pH 7.4) followed by suspension and centrifugation at 20,000 g for 30 min at 4° C. Pellets were homogenized in 2 mL assay buffer (50 mM Tris, 10 mM KCl, and 1 mM MgCl2, 4° C.) and aliquots of cell membrane suspensions were stored at −80° C. and thawed the day of the [^3H]-dofetilide binding assay. Protein content was determined prior to the assay using a Bradford protein assay with bovine albumin as the standard.
[^3H]-Dofetilide binding assay. [^3H]-Dofetilide binding assays using hERG-HEK293 cell membranes were based on previous methods. Redfern, et al. Cardiovasc Res 2003, 58, 32-45. Assays determining concentration-response were conducted in duplicate, and three independent assays were performed for each analog evaluated. […] Radioactivity was determined by liquid scintillation spectrometry using the Tri-Carb 2100-TR Liquid Scintillation Analyzer (Perkin-Elmer Life and Analytical Sciences) […]

Chain of hERG potassium channel (Q12809 whole entry): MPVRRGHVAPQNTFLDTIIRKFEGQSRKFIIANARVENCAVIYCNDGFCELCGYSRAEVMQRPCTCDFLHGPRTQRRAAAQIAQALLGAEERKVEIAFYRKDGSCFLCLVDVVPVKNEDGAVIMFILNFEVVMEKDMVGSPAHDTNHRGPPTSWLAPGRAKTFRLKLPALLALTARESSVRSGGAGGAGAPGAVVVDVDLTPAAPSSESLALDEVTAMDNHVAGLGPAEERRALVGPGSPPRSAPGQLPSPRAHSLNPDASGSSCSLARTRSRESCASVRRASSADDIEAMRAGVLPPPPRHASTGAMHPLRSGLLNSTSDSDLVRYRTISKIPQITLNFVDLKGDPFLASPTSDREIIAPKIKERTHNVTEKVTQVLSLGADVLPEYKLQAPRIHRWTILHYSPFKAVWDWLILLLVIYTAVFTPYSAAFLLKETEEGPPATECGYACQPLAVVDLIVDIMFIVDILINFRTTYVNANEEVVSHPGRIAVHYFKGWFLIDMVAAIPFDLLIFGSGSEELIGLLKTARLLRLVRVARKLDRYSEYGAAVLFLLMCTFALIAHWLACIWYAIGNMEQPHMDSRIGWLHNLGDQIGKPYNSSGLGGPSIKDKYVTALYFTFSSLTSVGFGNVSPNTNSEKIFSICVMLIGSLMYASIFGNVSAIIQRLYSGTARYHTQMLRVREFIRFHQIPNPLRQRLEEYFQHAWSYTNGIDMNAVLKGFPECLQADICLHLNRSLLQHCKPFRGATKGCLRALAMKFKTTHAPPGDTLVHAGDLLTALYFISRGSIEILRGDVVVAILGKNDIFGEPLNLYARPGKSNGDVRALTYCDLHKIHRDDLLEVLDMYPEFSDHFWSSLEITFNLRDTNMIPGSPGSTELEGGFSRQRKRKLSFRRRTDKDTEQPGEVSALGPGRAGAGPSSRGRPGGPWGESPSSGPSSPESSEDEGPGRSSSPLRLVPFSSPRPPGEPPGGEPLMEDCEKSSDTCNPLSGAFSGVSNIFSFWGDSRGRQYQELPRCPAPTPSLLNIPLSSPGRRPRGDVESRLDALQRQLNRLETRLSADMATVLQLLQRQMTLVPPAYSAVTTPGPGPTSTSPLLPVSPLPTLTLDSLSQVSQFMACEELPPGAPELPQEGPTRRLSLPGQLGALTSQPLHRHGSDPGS

| SMILES | Relative Levels of Par-4 Secretion by Arylquins Administered at 500 nM ([1]; Table 1) | Par-4 secretory activity (in words) [1] | IC50 (hERG potassium channel) | Ratio of Par-4 Secretion by Arylquin 1 Relative to Vehicle ([1]; Table 2) | Relative Levels of Par-4 Secretion by Arylquins Administered at 500 nM ([1]; Table 2) |
| --- | --- | --- | --- | --- | --- |
| CN(C)c1ccc2cc(-c3cccc(F)c3)c(N)nc2c1 [Arylquin 1d] | 66.8 ± 10.9 | weakly active | 1.59 ± 0.39 µM |  |  |
| CN(C)c1ccc2cc(-c3ccc(F)cc3)c(N)nc2c1 [Arylquin 1f] | 12.3 ± 2.0 | weakly active | 30.2 ± 10.3 µM |  |  |
| CN(C)c1ccc2cc(-c3ccccc3F)c(=S)[nH]c2c1 [Arylquin 10] |  | diminished Par-4 secretory activity relative to arylquinoline 1a | > 100 µM | 1.7 | 51.7 ± 4.9 |
| CN(C)c1ccc2cc(-c3ccccc3F)c(N3CCOCC3)nc2c1 [Arylquin 13a, 3-(2-Fluorophenyl)-NA-dimethyl-2-morpholinoquinolin-7-amine] |  | diminished activity to varying degrees | 23.3 ± 3.05 µM | 1.8 | 54.4 ± 2.8 |
| Nc1nc2ccccc2cc1-c1ccccc1F [Arylquin 15a] |  | decreased Par-4 secretory activity only slightly | 14.6 ± 5.82 µM | 2.8 | 82.1 ± 21.2 |
